Source: PMC11093748, “De novo identification of CD4^+ T cell epitopes” (Nature Methods, 2024)

What was measured:
Jurkat cells, No TCR = assay: Single SABR-II co-incubation, background without TCR; type: cell-based, human; conditions: No TCR, Ext. Data Fig. 6C, 18-20 hr
Excerpt: (§1) We performed systematic screening of the cloned TCRs against the I-Ag7 SABR-II library. Several TCRs along with a positive control (such as BDC2.5 or 4-8Ins) were screened individually against the library for each sort (Extended Data Fig. 6a and Supplementary Table 4). High- and low-confidence ES zones for each screened TCR were defined by the ES values of the control TCR’s cognate epitopes. For all putative cognate epitopes, single SABR-IIs were constructed, expressed in NFAT–GFP Jurkat cells and used for co-incubation with the corresponding TCRs. Co-incubation assays that yielded a GFP signal higher than that obtained in assays with no TCR were determined to be positive and the epitopes deemed true cognate ligands (Extended Data Fig. 6b,c). Using this strategy, we obtained epitopes in the high-confidence zone for eight TCRs (Fig. 3a and Extended Data Fig. 6b,d). Among numerous altered peptide ligands (APLs), these TCRs recognized the physiological InsC-ChgA HIP ([…] and analogs, recognized by TCR5, TCR6B, TCR9 and TCR34), InsC-Iapp HIP ([…] and analogs, recognized by TCR4 and TCR15) and InsB9:23 ([…] and analogs recognized by TCR24 and TCR37). These cognate high-confidence hits were validated using single SABR-II co-incubation assays (Fig. 3b and Extended Data Fig. 7a). Further validations using in vitro mouse interleukin-2 (mIL-2) secretion by TCR-expressing 5KC reporter cells[13] or CD25 expression by TCR-expressing splenic CD4^+ T cells upon stimulation with the cognate epitope were performed (Extended Data Fig. 7b,c). Furthermore, low-confidence hits were called for ten TCRs and tested in co-incubation assays.
(§2) For SABR library screens, 3 × 10^6 NFAT–GFP Jurkat cells expressing the SABR library were labeled with CellTrace Violet (BioLegend) according to the manufacturer’s protocol before incubation with 3 × 10^6 Jurkat cells expressing the TCR of interest. These mixtures were incubated in a six-well plate for 16–20 h. Cells were stained with anti-CD69-APC-Cy7 where indicated (BioLegend) and the top 1–2% of GFP^+CD69^+ cells were sorted for genomic DNA extraction, indexing and sequencing (see below). Multiplexed assays were scaled on a per-TCR basis (for example 3 × 10^6 for each of three TCRs against 9 × 10^6 library cells). For single SABR assays, unless otherwise defined, 5 × 10^5 SABR expressing NFAT–GFP Jurkat cells (or 5KC cells) were labeled with CellTrace Violet (BioLegend) according to the manufacturer’s protocol before incubation with 5 × 10^5 TCR-expressing Jurkat cells (or 5KC cells) in a round-bottom 96-well plate for 16–20 h. Cells were stained with anti-CD69-APC-Cy7 when indicated and acquired on the Attune NxT flow cytometer (Thermo Fisher Scientific). All flow analysis was performed using FlowJo (BD). For Daudi cell co-culture, 1 × 10^6 Jurkat cells expressing the TCR of interest were incubated with 1 × 10^6 Daudi cells expressing a SABR of interest for 3 days. On day 3, cells were labeled with anti-RT1B-PE and anti-Fas-APC-Cy7 before being acquired on the Attune NxT flow cytometer.

TCR5 = assay: Single SABR-II co-incubation, NFAT-GFP Jurkat; type: cell-based, mouse; conditions: TCR 5, Ext. Data Fig. 6C, 18-20 hr
Excerpt: as §1, §2

BDC2.5 TCR = assay: I-Ag7 SABR-II library screen, enrichment score; type: cell-based, mouse; conditions: I-Ag7 library
Excerpt: We then asked whether SABR-IIs could be used to present a library of epitopes for CD4^+ T cell antigen discovery. To that end, we constructed a SABR-II library to present epitopes derived from pancreatic islets in I-Ag7 by curating a list of 4,075 published epitopes from the Immune Epitope Database (iedb.org)[50] and a study by Wan et al.[51] (Supplementary Table 1). Of note, this defined library consisted of unmodified epitopes from endogenous proteins, synthetic mimotopes, deamidated epitopes and hybrid insulin peptides (HIPs) that arise from post-translational fusion and are not genetically encoded in vivo[52],[53]. The epitope library was inserted into the I-Ag7 SABR-II backbone through pooled oligonucleotide synthesis, amplification and ligation-free cloning (Extended Data Fig. 3a). The I-Ag7 SABR-II-library was then expressed in NFAT–GFP Jurkat cells. We confirmed that after sequencing, the library accounted for a mean of 708 reads per epitope (Extended Data Fig. 3b). As a proof of concept, we performed co-incubation assays with Jurkat cells expressing the BDC2.5 TCR and sorted the top 1–2% of GFP^+CD69^+ cells at a rate of ~20 min per replicate with three replicates per TCR. We extracted the genomic DNA from sorted cells, amplified the SABR portion of the integrated proviruses and subjected the amplicons to Illumina sequencing (Extended Data Fig. 3c,d). The 1–2% sort gate represents >50-fold enrichment of cognate epitopes with minimal loss of signal (Extended Data Fig. 3e–h). Sequence reads were aligned to the I-Ag7 SABR-II backbone and the corresponding epitopes were scored based on their read counts. For each TCR under investigation, an enrichment score (ES) was determined for all the epitopes in a library. In each experiment, three replicates of a sort with TCR-expressing Jurkat cells were performed and reads were counted post-sequencing. In addition, three replicates of the unsorted library were also sequenced. A linear regression model was built using the unsorted library counts and used to determine the expected abundance of each epitope in the library. The ES was calculated based on the difference between the measured and the expected abundance of each epitope on a per-TCR basis (Fig. 1e). Based on ES values, two quantitative thresholds were used to determine putative cognate epitopes of a given TCR. A high-confidence zone containing clear outliers with a high ES and a low-confidence zone containing weak outliers with a moderately high ES were determined (Fig. 1e). This two-tiered strategy was used to call putative hits from screens. All the top-scoring epitopes for the BDC2.5 TCR were known BDC2.5 ligands containing the WXRM(D/E) motif (Fig. 1f,g, enriched ligands in red), a well-characterized trait of the BDC2.5 TCR[43],[54]–[56]. Across several independent experiments there was limited variation in ES values for the same TCRs and several epitopes fell into high- or low-confidence zones consistently (Extended Data Fig. 4a). Using a different TCR that was isolated from NOD mice, 4-8Ins[57], which recognized the InsB9:23 epitope ([…]), we observed a similar pattern of ES for cognate epitopes (Extended Data Fig. 4b).
For SABR library screens, 3 × 10^6 NFAT–GFP Jurkat cells expressing the SABR library were labeled with CellTrace Violet (BioLegend) according to the manufacturer’s protocol before incubation with 3 × 10^6 Jurkat cells expressing the TCR of interest. These mixtures were incubated in a six-well plate for 16–20 h. Cells were stained with anti-CD69-APC-Cy7 where indicated (BioLegend) and the top 1–2% of GFP^+CD69^+ cells were sorted for genomic DNA extraction, indexing and sequencing (see below). Multiplexed assays were scaled on a per-TCR basis (for example 3 × 10^6 for each of three TCRs against 9 × 10^6 library cells). […]

[1] = EXPT1 of 8 biological experiments

Sequence	%GFP+CD69+ cells of SABR-NFAT-GFP-Jurkat cells (Jurkat cells, No TCR; technical replicate 1)	%GFP+CD69+ cells of SABR-NFAT-GFP-Jurkat cells (Jurkat cells, No TCR; technical replicate 2)	%GFP+CD69+ cells of SABR-NFAT-GFP-Jurkat cells (TCR5; technical replicate 1)	%GFP+CD69+ cells of SABR-NFAT-GFP-Jurkat cells (TCR5; technical replicate 2)	Enrichment score (BDC2.5 TCR; [1])	Enrichment score (BDC2.5 TCR; EXPT2 of 8)	Enrichment score (BDC2.5 TCR; EXPT3 of 8)	Enrichment score (BDC2.5 TCR; EXPT4 of 8)	Enrichment score (BDC2.5 TCR; EXPT5 of 8)	Enrichment score (BDC2.5 TCR; EXPT6 of 8)	Enrichment score (BDC2.5 TCR; EXPT7 of 8)	Enrichment score (BDC2.5 TCR; EXPT8 of 8)
EKAHHAIWARMDAKK	0.95%	0.84%	38%	39.6%								
SRLGLWVRME [top putative hit of BDC2.5 TCR in I-Ag7 library]					0.000716	0.000449	0.000874	0.000616	0.000562	0.000596	0.000875	0.000992
SRLGLWARME [top putative hit of BDC2.5 TCR in I-Ag7 library]					0.00089	0.000594	0.000983	0.000723	0.000811	0.001313	0.001203	0.001063
AVRPLWVRMEA [top putative hit of BDC2.5 TCR in I-Ag7 library]					0.000756	0.000652	0.000955	0.000753	0.000651	0.00121	0.001291	0.000826
EKAHIPIWARMDAKK [top putative hit of BDC2.5 TCR in I-Ag7 library]					0.001977	0.00122	0.003326	0.002646	0.002482	0.002979	0.003083	0.003642
EKAHRPIWARMDAKK [top putative hit of BDC2.5 TCR in I-Ag7 library]					0.001675	0.001085	0.002939	0.002157	0.001924	0.002825	0.003201	0.003092
AVRPLWVRME [top putative hit of BDC2.5 TCR in I-Ag7 library]					0.000751	0.000649	0.001092	0.001062	0.001109	0.000835	0.001173	0.001182
